Test results published in publication PMC9785397, “Exploiting Conserved Quorum Sensing Signals in Streptococcus mutans and Streptococcus pneumoniae” (Microorganisms, 2022).
Converted amounts (≈) assume the structure as drawn. Where a name gives a salt, the structure may show the parent alone.

Tests used:
[1] = test system: S. mutans; assay: microbe, parasite or virus in culture; assay type: cell-based, Streptococcus mutans; conditions: for Minimum inhibitory concentration (MIC), S. mutans: peptides 0–50 μM, 37 °C, microaerophilic, A620 nm, three separate experiments
Source text: (§1) Streptococcus mutans Clarke (strain designation NCTC 10449), Pseudomonas aeruginosa (Schroeter) Migula (strain designation PAO1), Fusobacterium nucleatum, subspecies nucleatum (strain VPI 4355), and Porphyromonas gingivalis (strain 2561) were purchased from ATCC (LGC Standards Srl, Milan, Italy). Streptococcus mitis, Streptococcus oralis, and Streptococcus sanguinis were obtained from clinical isolates and characterized by morphological, biochemical, and molecular typing. S. mutans, S. mitis, S. oralis, and S. sanguinis were maintained in Brain Heart Infusion (BHI) broth or agar under microaerophilic conditions. P. aeruginosa was maintained in trypticase soy (TS) agar or broth. F. nucleatum was maintained in TS agar or broth with defibrinated sheep blood under anaerobic conditions. P. gingivalis was maintained in ATCC Medium 2722 supplemented with TS broth or agar under anaerobic conditions. Before the experiments, bacterial cultures were inoculated in fresh media (dilution 1:100) and grown for 16 h at 37 °C.
(§2) The antimicrobial activities of the tested peptides were assessed through the determination of the minimum inhibitory concentration (MIC) standardized by the Clinical and Laboratory Standards Institute. Bacterial inocula were diluted in 10 mL of MHB […]. The concentration of the bacteria was adjusted to 0.5 McFarland standard, and the bacteria were dispensed in 96-well microtiter plates (final bacterial concentration: 1 × 10^4 CFU/well). Peptides were dissolved in sterile water (stock concentration: 2 mM) and added at final concentrations ranging from 0 to 50 µM. Plates were incubated at 37 °C for 16 h. At the end of incubation, bacterial growth was recorded using a microplate reader (Varioskan Lux Reader; Thermo Fisher Scientific, Milan, Italy) by quantifying the adsorption at 620 nm. Cultures were then opportunely diluted and seeded on agar plates. Bacterial cultures inoculated with the highest final concentration of the vehicle (sterile water) or chlorhexidine hydrochloride salt (CHX, concentration range: 0.05 to 500 μg/mL; Merck, Milan, Italy) were included as controls in each test. Experiments were performed in triplicate.

[2] = test system: S. mitis; assay: microbe, parasite or virus in culture; assay type: cell-based, Streptococcus mitis; conditions: for Minimum inhibitory concentration (MIC), S. mitis: peptides 0–50 μM, 37 °C, microaerophilic, A620 nm, three separate experiments
Source text: as §1, §2

[3] = test system: S. oralis; assay: microbe, parasite or virus in culture; assay type: cell-based, Streptococcus oralis; conditions: for Minimum inhibitory concentration (MIC), S. oralis: peptides 0–50 μM, 37 °C, microaerophilic, A620 nm, three separate experiments
Source text: as §1, §2

[4] = test system: S. sanguinis; assay: microbe, parasite or virus in culture; assay type: cell-based, Streptococcus sanguinis; conditions: for Minimum inhibitory concentration (MIC), S. sanguinis: peptides 0–50 μM, 37 °C, microaerophilic, A620 nm, three separate experiments
Source text: as §1, §2

[5] = test system: P. aeruginosa; assay: microbe, parasite or virus in culture; assay type: cell-based, Pseudomonas aeruginosa; conditions: 16 h; for Minimum inhibitory concentration (MIC), P. aeruginosa: peptides 0–50 μM, 37 °C, aerobic, A620 nm, three separate experiments
Source text: as §1, §2

[6] = test system: F. nucleatum; assay: microbe, parasite or virus in culture; assay type: cell-based, Fusobacterium nucleatum; conditions: 16 h; for Minimum inhibitory concentration (MIC), F. nucleatum: peptides 0–50 μM, 37 °C, anaerobic, A620 nm, three separate experiments
Source text: as §1, §2

[7] = test system: P. gingivalis; assay: microbe, parasite or virus in culture; assay type: cell-based, Porphyromonas gingivalis; conditions: 16 h; for Minimum inhibitory concentration (MIC), P. gingivalis: peptides 0–50 μM, 37 °C, anaerobic, A620 nm, three separate experiments
Source text: as §1, §2

[8] = test system: S. mutans bacteriocin production against S. mitis; assay: Bacteriocin overlay assay, S. mutans spotted on S. mitis; assay type: cell-based, Streptococcus mutans; conditions: analog 20 μM with CSP1 20 μM, 16 h, p < 0.05 vs CSP1
Experimental: (§3) During the formation of complex biofilm such as dental plaque, the ability of S. mutans to compete with other commensal species determines the success of the cariogenesis process. S. mutans uses antibacterial peptides, namely, bacteriocins, to overcome and subvert the composition of dental microbiota. We investigated the production of bacteriocins using the overlay assay. Overnight cultures of S. mitis, S. oralis, S. sanguinis, P. aeruginosa, F. nucleatum, or P. gingivalis were diluted 1:100 in BHI or TS broth and incubated at 37 °C until they reached an OD620 of 0.3. Cultures were added with agar (BD Difco^TM Agar) at the final concentration of 1.5% w/v and transferred in plates. Overnight cultures of S. mutans were diluted 1:100 in BHI and added with peptides (20 μM) or the vehicle with or without CSP1. Culture media were supplemented with agar to reach the final concentration of 0.7% w/v. The solutions were spotted on the surface of agar plates prepared as described above. The plates were kept on the benchtop for 30 min, allowing the agar containing S. mutans to solidify, and then incubated at 37 °C for 16 h under microaerophilic or anaerobic conditions, as required.
(§4) Spots (10 for each experimental group) were acquired and analyzed using NIH Image J software (version 1.53t August 2022, https://imagej.nih.gov/ij/index.html; accessed on 7 September 2022). The appearance of a clear area on the plate (bacterial growth inhibition) was evaluated as indicative of bacteriocin activity. The diameters of the area were measured in a blinded fashion.

[9] = test system: S. mutans bacteriocin production against S. oralis; assay: Bacteriocin overlay assay, S. mutans spotted on S. oralis; assay type: cell-based, Streptococcus mutans; conditions: analog 20 μM with CSP1 20 μM, 16 h, p < 0.05 vs CSP1
Experimental: as §3, §4

[10] = test system: S. mutans bacteriocin production against S. sanguinis; assay: Bacteriocin overlay assay, S. mutans spotted on S. sanguinis; assay type: cell-based, Streptococcus mutans; conditions: analog 20 μM with CSP1 20 μM, 16 h, p < 0.05 vs CSP1
Experimental: as §3, §4

[11] = test system: bip gene; assay: qRT-PCR, bip gene expression; assay type: cell-based, Streptococcus mutans; conditions: analog 20 μM with CSP1 20 μM, 8 h, qPCR, p < 0.05 vs CSP1
Experimental: (§5) S. mutans was cultured in BHI supplemented with peptides or the vehicle. Cultures were centrifuged, and total RNA was isolated and purified from the bacterial pellets using the GRS Total RNA Kit—Bacteria (GK16.0100; GRISP Research Solution, Porto, Portugal), following the manufacturer’s instructions. Purified RNA was subjected to DNase I treatment to remove contaminating DNA. The RNA yield and purity were assessed by measuring the absorbance, and only samples with a ratio of 260/280 nm in the 1.8–2 range were used. cDNA was generated using the cDNA RT kit with an RNAse inhibitor (Applied Biosystems; Monza, Milan). Quantitative PCR (qRT-PCR) was performed using SYBR green mixture (iScript One Step RT-PCR kit; Bio-Rad, Segrate, Milan) to determine the transcript levels of genes using the oligonucleotides listed in Table 3. The gyrA gene served as the housekeeping gene.

[12] = test system: comD gene; assay: qRT-PCR, comD gene expression; assay type: cell-based, Streptococcus mutans; conditions: analog 20 μM with CSP1 20 μM, planktonic, 8 h, qPCR
Experimental: as §5

[13] = test system: comE gene; assay: qRT-PCR, comE gene expression; assay type: cell-based, Streptococcus mutans; conditions: analog 20 μM with CSP1 20 μM, planktonic, 8 h, qPCR
Experimental: as §5

[14] = test system: S. mutans biofilm formation; assay: Biofilm formation (crystal violet); assay type: cell-based, Streptococcus mutans; conditions: CHX 0.63 μg/mL, 72 h, stimuli renewed every 24 h
Experimental: (§6) Overnight cultures of S. mutans were diluted 1:1000 in a 1:10 solution of BHI broth supplemented with 0.2% w/v sucrose and artificial saliva (AS; 1.3 g/L KCl, 0.1 g/L NaCl, 0.05 g/L MgCl, 0.1 g/L CaCl2, 0.5 g/L peptone, 25 μg/L NaF, 27 mg/L KH2PO4, 35 mg/L K2HPO4, pH 6.8; all reagents purchased from Merck). Cultures were seeded into 96-well polystyrene microtiter plates (200 µL/well) and incubated at 37 °C under static conditions. To identify the time of incubation that is useful in obtaining a mature biofilm, plates were incubated for 16, 24, 48, 72, or 96 h. Half of the media was renewed every 24 h. At the end of incubations, the wells were emptied and washed three times with sterile PBS to remove planktonic cells. Adhering cells were incubated with resazurin 0.01% in the dark at 37 °C for 20 min [30]. In metabolically active cells, the non-fluorescent resazurin was reduced to highly fluorescent resorufin by dehydrogenase enzymes. The relative fluorescence units (RFU) of resorufin were measured using a fluorimeter (Ex = 530–570 nm, Em = 590–620 nm; Varioskan Lux Reader; Thermo Fisher Scientific).
(§7) To assess the effect of the compounds on biofilm formation or mature biofilm, cultures of S. mutans were prepared as described above. […] The optical density was measured at 570 nm using a microplate reader (Varioskan Lux Reader; Thermo Fisher Scientific). […]

[15] = test system: S. mutans mature biofilm; assay: Mature biofilm (crystal violet); assay type: cell-based, Streptococcus mutans; conditions: CHX 0.63 μg/mL added at 48 h, biofilm assessed 24 h later
Experimental: as §6, §7

[16] = CHX, microdilution method and colony counting assay

Structure (SMILES)	Minimum inhibitory concentration (MIC), S. mutans ([1]; 16 h) [µM]	Minimum inhibitory concentration (MIC), S. mitis ([2]; 16 h) [µM]	Minimum inhibitory concentration (MIC), S. oralis ([3]; 16 h) [µM]	Minimum inhibitory concentration (MIC), S. sanguinis ([4]; 16 h) [µM]	Minimum inhibitory concentration (MIC), P. aeruginosa [5] [µM]	Minimum inhibitory concentration (MIC), F. nucleatum [6] [µM]	Minimum inhibitory concentration (MIC), P. gingivalis [7] [µM]	Effect on the CSP1-induced antibacterial effects against S. mitis [8]	Effect on the CSP1-induced antibacterial effects against S. oralis [9]	Effect on the CSP1-induced antibacterial effects against S. sanguinis [10]	Effect on the CSP1-induced expression of bip [11]	Effect on the expression of comD induced by CSP1 [12]	Effect on the expression of comE induced by CSP1 [13]	further results
CC[C@H](C)[C@H](NC(=O)[C@H](Cc1ccccc1)NC(=O)[C@H](CC(=O)O)NC(=O)[C@H](CCCNC(=N)N)NC(=O)[C@H](Cc1ccccc1)NC(=O)[C@H](Cc1ccccc1)NC(=O)[C@H](CCCCNC(C)=O)NC(=O)[C@H](CO)NC(=O)[C@H](CC(C)C)NC(=O)[C@H](CCCNC(=N)N)NC(=O)[C@H](CCSC)NC(=O)[C@H](CCC(=O)O)NC(C)=O)C(=O)N[C@@H](CC(C)C)C(=O)N[C@@H](CCC(N)=O)C(=O)N[C@@H](CCCNC(=N)N)C(=O)N[C@@H](CCCCNC(C)=O)C(=O)N[C@@H](CCCCNC(C)=O)C(=O)O [Ac4CSP1]	26 (≈ 62.7 µg/mL)	28 (≈ 67.5 µg/mL)	23 (≈ 55.5 µg/mL)	25 (≈ 60.3 µg/mL)	>50	>50	>50	significantly reduced	significantly reduced	significantly reduced	significantly reduced	inhibited the expression	inhibited the expression	–
CC[C@H](C)[C@H](NC(=O)[C@H](Cc1ccccc1)NC(=O)[C@H](CC(=O)O)NC(=O)[C@H](CCCNC(=N)N)NC(=O)[C@H](Cc1ccccc1)NC(=O)[C@H](Cc1ccccc1)NC(=O)[C@H](CCCCN)NC(=O)[C@H](CO)NC(=O)[C@H](CC(C)C)NC(=O)[C@H](CCCNC(=N)N)NC(=O)[C@H](CCSC)NC(=O)[C@H](CCC(=O)O)NC(C)=O)C(=O)N[C@@H](CC(C)C)C(=O)N[C@@H](CCC(N)=O)C(=O)N[C@@H](CCCNC(=N)N)C(=O)N[C@@H](CCCCN)C(=O)N[C@@H](CCCCN)C(=O)O [AcCSP1]	20 (≈ 45.7 µg/mL)	24 (≈ 54.8 µg/mL)	21 (≈ 48 µg/mL)	27 (≈ 61.7 µg/mL)	>50	>50	>50	significantly reduced	significantly reduced	significantly reduced	significantly reduced	inhibited the expression	inhibited the expression	–
[H]/N=C(\N/C(=N/[H])NCCCCCCNC(=N)NC(=N)Nc1ccc(Cl)cc1)Nc1ccc(Cl)cc1 [CHX, chlorhexidine hydrochloride salt]	–	–	–	–	–	–	–	–	–	–	–	–	–	Concentration inducing bactericidal activity, S. mutans [1, 16]: below 1 μg/mL; MIC ([1]; Streptococcus mutans, 16 h, read-out: Minimum inhibitory concentration (MIC), S. mutans): 0.63 µg/mL; Concentration inducing bactericidal activity, S. mitis [2, 16]: below 1 μg/mL; MIC ([2]; Streptococcus mitis, 16 h, read-out: Minimum inhibitory concentration (MIC), S. mitis): 0.5 µg/mL; Concentration inducing bactericidal activity, S. oralis [3, 16]: below 1 μg/mL; MIC ([3]; Streptococcus oralis, 16 h, read-out: Minimum inhibitory concentration (MIC), S. oralis): 0.57 µg/mL; Concentration inducing bactericidal activity, S. sanguinis [4, 16]: below 1 μg/mL; MIC ([4]; Streptococcus sanguinis, 16 h, read-out: Minimum inhibitory concentration (MIC), S. sanguinis): 0.69 µg/mL; MIC ([5]; Pseudomonas aeruginosa, read-out: Minimum inhibitory concentration (MIC), P. aeruginosa): 1.68 µg/mL; MIC ([6]; Fusobacterium nucleatum, read-out: Minimum inhibitory concentration (MIC), F. nucleatum): 300 µg/mL; MIC ([7]; Porphyromonas gingivalis, read-out: Minimum inhibitory concentration (MIC), P. gingivalis): 254 µg/mL; Reduction of biofilm formation vs. vehicle [14]: 70%; Reduction of mature biofilm vs. vehicle [15]: 54%
